# Results as given in the NIST ThermoML archive (doi:10.1021/je700316s).
# ± gives the expanded uncertainty stated by the source.
# Conditions: Liquid; for mass density: 298.15 K, 101.33 kPa, Pycnometric method
# [1] = Ebulliometric method (Recirculating still)
mass density [kg/m3],Normal boiling temperature [1] [°C],Normal boiling temperature [°C],SMILES
805.8 ± 0.7,117.70 ± 0.2,,CCCCO [butan-1-ol]
785.2 ± 0.7,,78.29 ± 0.2,CCO [ethanol]
799.6 ± 0.7,97.06 ± 0.2,,CCCO [propan-1-ol]
780.8 ± 0.7,82.2 ± 0.2,,CC(C)O [propan-2-ol]
